In general, fraction unbound refers to the share of the substance not bound to proteins or other matrix. A low value points to extensive binding. The term CL/F denotes clearance divided by bioavailability, as obtained after extravascular dosing. Broadly, the Kd is the free concentration of one partner at which half of the binding sites on the other are occupied at equilibrium, for simple one-to-one binding. As usually defined, the Cmax is the peak of the concentration-time curve.

Series [1] has as its system Salmonella typhimurium strains TA98, TA100, TA1535 and TA1537. Description: Ames test. The series is classed as cell-based. The method, then: The mutagenic potential of HYL001 was evaluated by the Ames test, assessing its ability to induce reverse mutations in the histidine operon of Salmonella typhimurium strains that allow for detection of both substitution mutations (TA100 and TA1535) and frameshift mutations (TA98 and TA1537). The mutagenic potential of HYL001 was tested at 6 concentrations (semilog 1–320 μg/mL) alone or in the presence of liver S9 fractions. […]
The Ames test was performed at Xenomatrix (Allschwil, Switzerland). Bacteria from the S. typhimurium […]
negative control, for 90 minutes in medium containing sufficient histidine to support approximately two cell divisions. After exposure, the cultures were diluted in pH indicator medium lacking histidine or tryptophan and aliquoted into 48 wells of a 384-well plate. Within two days, cells that have undergone reversion to amino acid prototrophy grow into colonies. The number of wells containing revertant colonies were counted by pH indicator colour change for each dose and compared to a solvent (negative) control. A dose dependent increase in the number of revertant colonies upon exposure to HYL001 would have indicated mutagenicity.
(In general: In the Ames test, an excess of revertant colonies over the control signals mutagenicity.)

The nature of series [2]: Plasma protein binding by rapid equilibrium dialysis, human plasma. Conditions: for fraction unbound at 4 h, 5 µM: plasma. The method, then: (§1) 5. Methods for In vitro characterizations of HYL001 […]
(§2) Rapid equilibrium dialysis was performed in triplicates with a rapid equilibrium dialysis (RED) by Sai Life Sciences Lt. (Telangana, India). The RED device contains a dialysis membrane with a molecular weight cut -off […]
(§3) of 8,000 Da, separating two chambers for plasma and buffer, respectively. […]
(§4) were added to the plasma chamber, versus phosphate buffer saline (pH 7.4) to the buffer chamber. Dialysis was performed for 4 h with 100 RPM shaking at 37 °C. […]
(§5) compounds in plasma were either frozen immediately (T0 sample), or incubated at 37 °C for 4 h without dialysis (non-dialysed), respectively.
(§6) Following dialysis, an aliquot was removed from either chamber and diluted with equal volume of opposite matrix to nullify the matrix effect. Similarly, buffer was added to recovery and stability samples. Next, acetonitrile (containing internal standard, glipizide) was added to the mixtures for protein precipitation and vortexed for 5 minutes. The samples were centrifuged at 4000 RPM at 4 °C for 10 min and the supernatant was submitted for liquid chromatography mass spectrometry (LC-MS/MS) analysis. Samples were monitored for parent compound using multiple reaction monitoring (MRM) mode.
(§7) The peak area ratios (PAR, analyte versus internal standard) in plasma vs bufffer were used to determine the fraction of compound bound to plasma proteins. The following equation was used to determine the extent of plasma protein binding: percent free drug = 100% x (PARbuffer / PARplasma); percent bound drug = 100 - % free drug. Recovery was calculated as 100% x (PARplasma + PARbuffer)dialysed / (PARplasma)non-dialysed; stability as 100% x (PAR)non-dialysed / (PARplasma)frozen at T0. […]

Series [3] can be described thus: Plasma protein binding by rapid equilibrium dialysis, rat plasma. The method, then: as §1, §2, §3, §4, §5, §6, §7
Series [4] concerns TGFβ targets (phospho-SMAD2, CTHRC1, Caldesmon). Description: Protein expression of TGFβ targets in established liver metastases. The series is classed as in vivo. Conditions: mice with established liver metastases. The text has this: (Figure S4). […] Moreover, these mice were resistant to immune checkpoint therapy like human patients with pMMR/MSS CRC are in the clinic.[5],[33]

Series [5] concerns the target hERG potassium channel (Homo sapiens, UniProt Q12809). The experiment in a line: hERG automated patch clamp on CHO-K1 cells. Conditions: micromolar concentrations. (In general: The hERG channel carries a current that helps repolarise heart muscle cells.)
Procedure: clamp (Eurofins, Celle L’Evescault, France) on CHO -K1 cells. The tail current amplitude, induced by a one
second test pulse to -40 mV after a two second pulse to +20 mV, was measured before and aft er drug incubation
and expressed as % inhibition.
Series [6] is described as follows: Literature oral pharmacokinetics in mice. The series is classed as in vivo. Conditions: female, mouse, plasma, mice (♀ CD-1), 75 mg/kg, estimated using AUClast of ref 20. The text has this: Table 2 Pharmacokinetics of HYL001 in Preclinical Species after Oral Administration ^a | column: Cl/F (mL/min/kg)
Series [7] deals with mouse tumor organoids (MTOs), CRC liver metastases. Details: method as in PMID 29443964. Conditions: murine CRC liver metastasis model ref 5; cited from earlier work.
The target in series [8] is T1, ALK2 (ACVR1) (Homo sapiens, UniProt Q04771).
T1 construct: purchased Eurofins/DiscoveryX (KINOMEscan service)
T1 sequence (Q04771 21-509): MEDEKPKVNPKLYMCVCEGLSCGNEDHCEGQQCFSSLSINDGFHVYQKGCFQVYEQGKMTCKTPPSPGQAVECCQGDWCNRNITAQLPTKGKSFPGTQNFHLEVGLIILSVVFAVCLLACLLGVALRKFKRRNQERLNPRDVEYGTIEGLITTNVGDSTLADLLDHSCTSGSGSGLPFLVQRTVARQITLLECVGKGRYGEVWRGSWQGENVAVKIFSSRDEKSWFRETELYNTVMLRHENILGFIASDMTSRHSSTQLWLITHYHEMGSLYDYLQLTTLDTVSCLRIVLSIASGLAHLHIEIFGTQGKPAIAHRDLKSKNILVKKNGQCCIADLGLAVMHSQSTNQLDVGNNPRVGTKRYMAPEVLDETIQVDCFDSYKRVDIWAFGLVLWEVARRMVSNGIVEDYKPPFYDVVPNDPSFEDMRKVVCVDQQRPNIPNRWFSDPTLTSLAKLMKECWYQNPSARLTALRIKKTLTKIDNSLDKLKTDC
Further details: method as in earlier work. Conditions: reported data ref 15; read-out: Binding constant (Kd) ALK2 (ACVR1); cited from earlier work.

In series [9] the target is T2, ALK3 (BMPR1A) (Homo sapiens, UniProt P36894).
T2 construct: purchased Eurofins/DiscoveryX (KINOMEscan service)
T2 sequence (P36894 24-532): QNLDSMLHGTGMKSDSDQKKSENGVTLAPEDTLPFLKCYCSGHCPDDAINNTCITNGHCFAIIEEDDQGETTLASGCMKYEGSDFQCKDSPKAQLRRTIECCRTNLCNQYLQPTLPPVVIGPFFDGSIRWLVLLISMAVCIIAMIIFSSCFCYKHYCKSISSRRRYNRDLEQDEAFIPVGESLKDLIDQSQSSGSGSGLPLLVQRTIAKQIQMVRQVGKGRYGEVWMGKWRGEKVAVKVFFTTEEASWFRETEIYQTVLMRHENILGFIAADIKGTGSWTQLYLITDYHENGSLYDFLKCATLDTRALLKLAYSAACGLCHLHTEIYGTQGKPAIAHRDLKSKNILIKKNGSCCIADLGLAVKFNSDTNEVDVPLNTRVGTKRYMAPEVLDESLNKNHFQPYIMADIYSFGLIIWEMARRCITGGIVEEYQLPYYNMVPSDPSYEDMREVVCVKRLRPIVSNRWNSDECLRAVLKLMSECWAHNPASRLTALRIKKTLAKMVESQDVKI
Further details: method as in earlier work. Conditions: reported data ref 15; read-out: Binding constant (Kd) ALK3 (BMPR1A); cited from earlier work.

On the set-up of series [10]: method as in PMID 24786585. Conditions: rats (♀ SD), oral, 10 mg/kg ref 18; cited from earlier work.

Chain of hERG potassium channel (Q12809 whole entry): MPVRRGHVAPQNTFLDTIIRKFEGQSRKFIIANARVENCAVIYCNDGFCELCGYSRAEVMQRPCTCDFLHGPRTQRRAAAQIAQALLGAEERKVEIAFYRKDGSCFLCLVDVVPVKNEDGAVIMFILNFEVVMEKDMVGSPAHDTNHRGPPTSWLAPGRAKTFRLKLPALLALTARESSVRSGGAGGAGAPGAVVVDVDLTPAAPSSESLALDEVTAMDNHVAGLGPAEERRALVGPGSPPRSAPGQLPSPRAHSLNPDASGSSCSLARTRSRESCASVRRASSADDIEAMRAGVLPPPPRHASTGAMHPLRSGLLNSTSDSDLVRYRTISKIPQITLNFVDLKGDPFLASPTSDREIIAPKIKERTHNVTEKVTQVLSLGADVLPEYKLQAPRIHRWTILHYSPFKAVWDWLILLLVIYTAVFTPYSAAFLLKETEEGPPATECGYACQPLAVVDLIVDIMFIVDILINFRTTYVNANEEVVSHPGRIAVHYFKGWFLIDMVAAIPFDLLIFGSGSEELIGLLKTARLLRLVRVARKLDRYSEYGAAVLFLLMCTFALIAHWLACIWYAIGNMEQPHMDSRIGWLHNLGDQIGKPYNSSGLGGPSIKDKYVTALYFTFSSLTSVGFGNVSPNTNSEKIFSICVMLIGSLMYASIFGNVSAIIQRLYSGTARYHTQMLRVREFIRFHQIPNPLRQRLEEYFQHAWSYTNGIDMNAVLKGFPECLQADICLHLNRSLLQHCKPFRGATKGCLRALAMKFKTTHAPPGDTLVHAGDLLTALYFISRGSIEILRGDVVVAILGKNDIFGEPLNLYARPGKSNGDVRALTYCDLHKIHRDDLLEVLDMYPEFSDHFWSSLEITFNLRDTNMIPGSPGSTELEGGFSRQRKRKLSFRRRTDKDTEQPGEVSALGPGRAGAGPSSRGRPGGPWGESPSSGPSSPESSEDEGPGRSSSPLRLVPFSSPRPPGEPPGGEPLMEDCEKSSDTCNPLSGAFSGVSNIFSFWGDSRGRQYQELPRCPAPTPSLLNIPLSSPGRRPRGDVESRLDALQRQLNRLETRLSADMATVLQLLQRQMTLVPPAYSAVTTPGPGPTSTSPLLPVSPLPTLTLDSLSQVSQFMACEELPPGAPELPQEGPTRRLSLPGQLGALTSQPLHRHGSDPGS

Turning to `Cc1cccc(-c2nn3c(c2-c2ccnc4ccc(O)cc24)CCC3)n1` [HYL001, 4-(2-(6-Methylpyridin-2-yl)-5,6-dihydro-4H-pyrrolo[1,2-b]pyrazol-3-yl)quinolin-6-ol], the “Positive mutagenic responses (Ames test)” value in series [1] (6 concentrations 1–320 μg/mL, alone or with liver S9, all strains) is on record as “No positive mutagenic responses”. Also, the Dose dependency result is on record as “No” in [1] (TA98, w/o S9); “No” in series [1] (TA98, with S9); “No” in series [1] (TA100, w/o S9); “No” in series [1] (TA100, with S9); “No” in series [1] (TA1535, w/o S9); “No” in [1] (TA1535, with S9). Further, the Dose dependency entry is on record as “No” in [1] (TA1537, w/o S9) and “No” in series [1] (TA1537, with S9). For the same compound, the Mutagenic data points entry in series [1] (TA98, w/o S9) is “No”; in [1] (TA98, with S9) it was “No”; in [1] (TA100, w/o S9) it was “No”; in series [1] (TA100, with S9), “No”; in series [1] (TA1535, w/o S9), “No”; in series [1] (TA1535, with S9), “No”. The Mutagenic data points entry in series [1] (TA1537, w/o S9) was “No”; in [1] (TA1537, with S9) it was “No”. Also, the “% Bound Mean ± SD” value in series [2] (human plasma, 5 µM, n=3) is listed as approximately 91%. Besides, the “% Compound remaining at 4 hrs” value is on record as 101.1% in series [2] (human plasma, 37 °C) and 106.1% in series [3] (rat plasma, 37 °C). The recovery at 4 h, 5 µM amounted to 101% in series [2] (human, plasma (rapid equilibrium dialysis device), pH 7.4) and 100% in series [3] (rat, plasma (rapid equilibrium dialysis device), pH 7.4). Moreover, the fraction unbound at 4 h, 5 µM in series [2] (human, pH 7.4, % Bound Mean ± SD, human plasma, 5 µM, n=3) is 0.084; in series [2] (human, pH 7.4, % Free fraction, human plasma), 0.084; in [3] (rat, plasma, pH 7.4) it was 0.049. Also, in series [3] (rat plasma), the “% Free fraction” value is recorded as 4.9%. In addition, the “Protein expression of TGFβ targets (phospho-SMAD2, CTHRC1, Caldesmon)” value in series [4] is “marked decrease”. Besides, the “hERG inhibition (in words)” value in series [5] is listed as “low inhibition”.

`Cc1cccc(-c2nn3c(c2-c2ccnc4ccc(C(N)=O)cc24)CCC3)n1` [galunisertib]: the CL/F in series [6] is 402 mL/min/kg. For the same compound, the Efficacious murine dose in series [7] is 720–800 mg/kg twice daily (BID). Moreover, the Kd in series [8] is 35.7 µM; in series [9], 16.8 µM.

Consider `Cc1cccc(-c2[nH]c(CNc3ccccc3F)nc2-c2ccc3ncnn3c2)n1` [vactosertib, N -((4-([1,2,4]Triazolo[1,5-a]Pyridin-6-Yl)-5-(6-Methylpyridin-2-Yl)-1 H -Imidazole-2-Yl)Methyl)-2-Fluoroaniline], for which, in series [10], the AUCinf is listed as 1426 ng·h/mL, the Cmax is on record as 1620 ng/mL and the T1/2 was 2.5 h.

These data come from publication PMC11729428, “New Potent Inhibitor of Transforming Growth Factor-Beta (TGFβ) Signaling that is Efficacious against Microsatellite Stable Colorectal Cancer Metastasis in Combination with Immune Checkpoint Therapy in Mice” (ACS Pharmacology & Translational Science, 2024).
